The target in the assay is Short transient receptor potential channel 6 (Mus musculus) (UniProt Q61143). Nature of the assay: TRPC6 inhibitor potency, dose response, cell-based, mouse TRPC6, HEK293, membrane potential (AID 2696). The following applies: TRPC6-expressing HEK293 cells, membrane potential dye fluorescence, acetylcholine-stimulated.

Structures are written as SMILES.

Short transient receptor potential channel 6 (Mus musculus), sequence (Q61143 whole entry, looked up): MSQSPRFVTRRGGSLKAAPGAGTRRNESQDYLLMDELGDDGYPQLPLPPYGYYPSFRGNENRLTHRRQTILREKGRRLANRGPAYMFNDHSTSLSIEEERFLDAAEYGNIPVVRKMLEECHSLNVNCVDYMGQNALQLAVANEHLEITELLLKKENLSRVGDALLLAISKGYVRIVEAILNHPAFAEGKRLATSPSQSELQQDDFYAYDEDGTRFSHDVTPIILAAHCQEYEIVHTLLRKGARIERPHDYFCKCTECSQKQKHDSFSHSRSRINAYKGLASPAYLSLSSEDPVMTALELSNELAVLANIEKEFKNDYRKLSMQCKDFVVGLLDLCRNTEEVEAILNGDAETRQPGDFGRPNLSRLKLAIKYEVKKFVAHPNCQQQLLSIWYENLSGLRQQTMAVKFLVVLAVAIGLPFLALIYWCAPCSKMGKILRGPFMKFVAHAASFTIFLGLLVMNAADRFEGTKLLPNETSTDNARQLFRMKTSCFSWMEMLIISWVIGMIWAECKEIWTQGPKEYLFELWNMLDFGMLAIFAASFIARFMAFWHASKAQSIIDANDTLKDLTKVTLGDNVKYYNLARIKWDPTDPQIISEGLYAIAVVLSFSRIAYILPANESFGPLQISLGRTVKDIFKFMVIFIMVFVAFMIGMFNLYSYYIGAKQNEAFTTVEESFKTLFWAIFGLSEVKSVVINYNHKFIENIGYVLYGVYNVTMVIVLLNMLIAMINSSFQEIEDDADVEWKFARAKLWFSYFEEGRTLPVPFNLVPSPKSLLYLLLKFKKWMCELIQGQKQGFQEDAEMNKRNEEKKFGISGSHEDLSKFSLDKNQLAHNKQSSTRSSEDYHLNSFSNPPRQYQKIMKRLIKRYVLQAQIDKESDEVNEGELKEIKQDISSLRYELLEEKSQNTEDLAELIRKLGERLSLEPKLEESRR

What is called IC50 is the concentration needed to halve the response being measured. Consider `Fc1ccc2[nH]c3c(c2c1)CN(C(=S)NCc1ccccc1)CC3`, for which the half-inhibitory concentration (IC50) was 31.6 µM.
With `Cc1cc(N2CCN(C)CC2)ccc1NC(=O)c1ccc(-c2ccc(Cl)cc2)o1` the figure was 44.7 µM.
With `CC1CCN(CC(C)CNC(=O)c2cc(-c3ccccn3)nc3ccccc23)CC1` (configuration not stated) the figure was 44.7 µM; with `C[N+]12CCC(CC1)C(=C(c1ccccc1)c1ccccc1)C2`, 4.47 µM; with `Nc1c2c(nc3ccn(Cc4ccccc4)c(=O)c13)CCC2`, 70.8 µM.
With `CCCCCOC(=O)c1ccc(NC(=O)c2ccco2)cc1` the figure was 70.8 µM; with `Cc1cc(-n2cccn2)ccc1CN1CCN(C2CCCC2)C(CCO)C1` (configuration not stated), 0.5 µM; with `COc1ccccc1Nc1nc(NCC2CCCO2)c2ccccc2n1` (configuration not stated), 79.4 µM.
As for `CN(C)CCNS(=O)(=O)c1ccc(N2CCN(c3ccc(F)cc3)CC2)c([N+](=O)[O-])c1`, the half-maximal inhibitory concentration (IC50) was 56.2 µM.
For the molecule `CC(=O)OCC[N+](C)(C)C`, the IC50 is 1.58 µM.
With `C[N+]1(C)CCCC(OC(=O)C(O)(c2ccccc2)c2ccccc2)C1` (configuration not stated) the figure was 0.89 µM.
With `COC(=O)c1[nH]c2ccccc2c1NC(=O)CN1CCN(C/C=C/c2ccccc2)CC1` the figure was 50.1 µM; with `Oc1ccccc1Nc1nc(NCC2CCCO2)c2ccccc2n1` (configuration not stated), 50.1 µM.
The result for `COc1ccc2ccccc2c1CNC(C)CCc1ccccc1` (configuration not stated) reads 15.8 µM; that for `COc1ccc(Nc2ccnc3ccccc23)cc1`, 70.8 µM; that for `CN(C)C/C=C/C(O)(c1ccccc1)c1ccccc1`, 10 µM.
Consider `CN(C)CCCN1c2ccccc2Sc2ccc(C(F)(F)F)cc21`, for which the IC50 is 50.1 µM.
As for `CN1CCN(C2=Nc3cc(Cl)ccc3Nc3ccccc32)CC1`, the half-inhibitory concentration (IC50) was 15.8 µM.
Take `COc1ccc(-n2nc(C(=O)c3cccs3)cc(-c3nc4ccccc4[nH]3)c2=N)cc1`: the 50% inhibitory concentration (IC50) was 50.1 µM.
The result for `CC(C)(C)c1ccc(Cn2c(=N)n(CC(O)c3ccco3)c3ccccc32)cc1` (configuration not stated) reads 44.7 µM; that for `O=C(CSc1ncccn1)N1CCN(C(c2ccccc2)c2ccccc2)CC1`, 50.1 µM; that for `CC(O)CNCCNCc1c(OCc2ccccc2)ccc2ccccc12` (configuration not stated), 44.7 µM.
With `N#Cc1c(N2CCNCC2)nc(-c2ccco2)c2c1CCCC2` the figure was 44.7 µM; with `CCN(CC)CC#CC(O)(c1ccccc1)c1ccccc1`, 8.91 µM.
On to `Cc1ccc2c(c1)NC(=O)C(CC(=O)Nc1ccc(CN3CCC(C)CC3)cc1)O2` (configuration not stated), for which the IC50 was 3.98 µM.
The result for `Cc1ccccc1CCNCc1cc2cccc(C)c2[nH]c1=O` reads 50.1 µM; that for `O=C(OCCN1CCCC1)C1(c2ccccc2)CCCC1`, 15.8 µM.
With `O=[N+]([O-])c1cccc(OCCCN2CCC(Cc3ccccc3)CC2)c1` the figure was 50.1 µM; with `c1ccc2c(c1)CC1CNCc3cccc(c31)S2` (configuration not stated), 70.8 µM; with `OC(Cn1c2ccccc2c2ccccc21)C[n+]1cccc2ccccc21` (configuration not stated), 35.5 µM.
`Cc1cc(C)n(-c2nc(NCCCN(C)C)c3c4c(sc3n2)COC(C)(C)C4)n1`: the IC50 was 14.1 µM.
`CCOc1ccc(CNc2ccc3c(c2)ncn3C(C)(C)C)cc1`: the IC50 was 14.1 µM.
The result for `Brc1ccc(-c2c[n+]3c(n2-c2ccccc2)SCC3)cc1` reads 50.1 µM.
With `CC(Cc1ccccc1Sc1ccc(O)cc1)N(C)C` (configuration not stated) the figure was 31.6 µM; with `CCCN(CC1CC1)C(=O)CCc1nnc(CCc2c[nH]c3ccccc23)o1`, 50.1 µM; with `COc1ccc(N2C(=O)CSC23C(=O)N2CCCc4cccc3c42)cc1` (configuration not stated), 1.12 µM.
The result for `CCN(CC)CCOC(=O)C1c2ccccc2Oc2ccccc21` reads 1.78 µM; that for `CCOCCCNC(=S)N1CCCN(c2nc3cc(C)ccc3cc2C#N)CC1`, 44.7 µM.
As for `Cc1cccn2c(=O)c3cc(C(=O)NC(C)C)c(=N)n(Cc4ccncc4)c3nc12`, the IC50 was 70.8 µM.
On to `C[n+]1ccc(/C=N/Nc2nc(Cl)c(C#N)c(Cl)c2Cl)cc1`, for which the IC50 was 39.8 µM.
As for `Cc1cccc[n+]1CC(=O)N1c2ccccc2Sc2ccccc21`, the IC50 was 4.47 µM.
With `O=C(NC(Nc1nc2ccc([N+](=O)[O-])cc2s1)(C(F)(F)F)C(F)(F)F)c1ccccc1` the figure was 8.91 µM.
The result for `CCOc1cccc(=NC2CCCCC2)c2c(C)n(C)c(C)c12` reads 50.1 µM; that for `O=C1Nc2ccccc2/C1=N\N=C\C1=C(N2CCOCC2)C(=C\c2ccccc2)/CC1`, 39.8 µM; that for `Cc1c(CCOC(=O)C23CC4CC(CC(C4)C2)C3)sc[n+]1Cc1ccccc1`, 39.8 µM.
The result for `Cc1ccc(C23CC4CC(CC(CN)(C4)C2)C3)cc1` reads 39.8 µM.
Consider `CCOc1ccc(NC(=O)c2c(NC(=O)CN3CCN(C)CC3)sc3c2CCC3)cc1`, for which the IC50 is 44.7 µM.
The result for `CCOCCN1CCN(C2c3ccccc3CSc3ccccc32)CC1` (configuration not stated) reads 50.1 µM; that for `CCCCc1nc2ccccc2c(N)c1CCC` (tested in a mixture with another compound), 70.8 µM.
With `Cc1ccc(N2C(=O)CSC2c2c(F)cccc2Cl)cc1` (configuration not stated) the figure was 17.8 µM; with `COc1ccc(C2NC(=O)NC(O)(C(F)(F)F)C2C(=O)c2ccc(C)cc2)cc1` (configuration not stated), 14.1 µM.
With `CC[N+](C)(CC)CCOC(=O)C(O)(c1ccccc1)C1CCCCC1` (configuration not stated) the figure was 0.79 µM; with `CCCCCOc1ccc(CSC(=N)N)cc1[N+](=O)[O-]`, 79.4 µM; with `Cc1c(C)n(Cc2ccccc2)c2ccc(C(=O)OCCCN(C)C)cc12`, 44.7 µM.
With `Cc1c(CCCN)c2ccccc2n1Cc1ccccc1`, the half-maximal inhibitory concentration (IC50) was 70.8 µM.
With `CCN(CC)CCNC(=O)c1nn(-c2ccc(C)cc2)c(=O)c2c1c1ccccc1n2C` the figure was 79.4 µM; with `CC(C)c1ccc(OCC(O)Cn2cnc3ccccc32)cc1` (configuration not stated), 39.8 µM.
On to `COC(=O)c1ccc(Nc2cc(C)nc3ccc(C)cc23)cc1`, for which the IC50 is 31.6 µM.
The result for `O=C1c2cccc3cccc(c23)C(=O)N1CC1CCN(CC(O)COCc2ccc3c(c2)OCO3)CC1` (configuration not stated) reads 50.1 µM.
With `CN1[C@@H]2CC[C@H]1CC(OC(=O)C(CO)c1ccccc1)C2` (some centres not stated), the concentration for half-maximal inhibition (IC50) was 0.08 µM.
As to `CCN(CC)CC(=O)Nc1ccc(-c2nc3cc(NC(=O)CN(CC)CC)ccc3o2)cc1`, the IC50 is 79.4 µM.
With `CN(C)CCOC(=O)C1(c2ccccc2)CCCC1` the figure was 44.7 µM.
With `Cc1cc(C)c2sc(N(CCCN(C)C)C(=O)c3ccc(Br)s3)nc2c1` the figure was 63.1 µM.
The result for `O=C(c1ccc2c(=O)n3c(nc2c1)CCCCC3)N1CCN(C(c2ccccc2)c2ccccc2)CC1` reads 19.9 µM; that for `CCOC(=O)c1nc2cc3n(c(C)c-2c1C)C(C)C(C)=C3C` (configuration not stated), 44.7 µM; that for `CCCn1c(=N)n(CC(=O)c2ccc(Cl)cc2)c2ccccc21`, 70.8 µM.
As to `OC(C#CCN1CCCCCC1)(c1ccccc1)c1cccnc1` (configuration not stated), the IC50 was 39.8 µM.
With `c1ccc(-c2nc(-c3ccccn3)nc(-c3ccccn3)n2)nc1` the figure was 44.7 µM; with `C[N+]12CCC(CC1)C(OC(=O)C(O)(c1ccccc1)c1ccccc1)C2` (configuration not stated), 0.04 µM.
With `CN1CCN(CCC(C#N)(c2ccccc2)c2ccccc2)CC1` the figure was 39.8 µM; with `COC(=O)c1ccc(CN2CCN(C3CCCC3)C(CCO)C2)cc1` (configuration not stated), 35.5 µM.
The result for `Cc1cc(-n2cccn2)ccc1CN1CCN(CC(C)C)C(CCO)C1` (configuration not stated) reads 11.2 µM.

The values above are taken from PubChem BioAssay AID2696 (Johns Hopkins Ion Channel Center, 2010).
